# Source: patent US20190307783A1, “USE OF ANTIVIRALS TO INHIBIT PROTOZOAN VIRUSES” (priority 2016, published 2019)
# Like-named read-outs stand apart in the source and are kept apart here.
# What was measured:
# [1] = test system: LRV1 (LgyLRV1 capsid levels); experiment: organism not typed; conditions: for LgyLRV1− population in washout, of total cell population / Parasites with LgyLRV1+ capsid levels in washout population: then drug-free media
# [2] = animal models; cited from earlier work
structure (smiles),measurement,setting,value
"C[C@@]1(O)[C@H](O)[C@@H](CO)O[C@H]1n1cnc2c(N)ncnc21 [2′C-methyadenosine, 2′-C-methyladenosine]","LgyLRV1− population in washout, of total cell population",[1]; 100 μM for four doublings,50%
same,Parasites with LgyLRV1+ capsid levels in washout population,[1]; 100 μM for four doublings,36%
same,"LgyLRV1− population in washout, of total cell population",[1]; 100 μM for three doublings,31%
same,Parasites with LgyLRV1+ capsid levels in washout population,[1]; 100 μM for three doublings,55%
same,Fold less LRV1 capsid expression,[1]; 100 μM maintained for four cell doublings,16 fold
same,Fold less LRV1 capsid expression,[1]; 100 μM maintained for three cell doublings,8 fold
same,Loss of LRV1 capsid and RNA at every cell doubling,"[1]; 100 μM, capsid flow cytometry and qRT-PCR",50%
same,EC50,"[1]; 48 h, read-out: EC50 for 2CMA inhibition of LRV1 in the presence of allopurinol",~3000 nM
same,activity at 100 µM,"[1]; 48 h, read-out: Percent control (LRV1 capsid)",7%
same,Selectivity for LRV1 versus L. guyanensis growth inhibition,[1]; EC50 growth vs EC50 LRV1 capsid,at least 30 fold
same,LRV1 capsid (geometric mean FU),"[1]; LgyLRV1+, tested at 100 μM, 2 days",19 FU
same,EC50,[1]; read-out: EC50 for LRV1 capsid inhibition,~3000 nM
same,Reduction in LRV1 capsid levels,[1]; tested at 100 μM,12 fold
same,Serum half-life,[2],18 min
